Tests used:
[1] = Effect on plasma phosphate level in normal rats (SMCC series); type: in vivo, rat; details: 20 IU sCT/kg equivalent, subcutaneous
Method: (§1) Pharmacodynamic response of sCT analogue was evaluated by analyzing plasma calcium concentration in the rat model. Sprague Dawley female rats weighing 230-260 g (about 6 weeks old) were purchased from Charles River, USA and housed at the University of Alberta Animal Holding Unit. All experimental protocols were approved by the Animals Ethics Committee of the University of Alberta. The rats were divided randomly into five groups of 3 animals each and the pharmacodynamic response was assessed following subcutaneous administration of the sCT or analogue equivalent to 20 IU sCT/kg body weight. Rats were anesthetized using Isoflurane inhalation anesthesia and the 200 μl blood samples were obtained in heparinized Eppendorf microtubes before drug injection. Then 100 μl of sCT or equivalent dose in 20 mM Sodium Acetate buffer pH 5 was sub cu injected and the blood samples were collected 1, 2, 3 and 4 hrs post injection from jugular vein. Blood plasma was obtained by centrifuging the samples at 5000 rpm for 10 min and collecting the supernatant. Plasma calcium level was assayed by QuantiChrom™ Calcium Assay Kit (BioAssay Systems, CA USA) and the plasma phosphate level was assayed by QuantiChrom™ Phosphate Assay Kit (BioAssay Systems, CA USA).

[2] = biological target: serum albumin (Homo sapiens, UniProt P02768); details: systemically administered; cited from earlier work
[3] = Bone mineral specificity: calcium pyrophosphate binding assay; details: 1 h, 100 mM phosphate buffer pH 7
Method: (§2) Bone targeting potential of sCT analogue was evaluated by determining the effect of sCT modification (due to chemical coupling) upon its bone mineral affinity. Specific volume of purified sCT analogue solution containing 10 μg of sCT was mixed with 1 mg Hydroxyapatite (HA) in 150 μL 100 mM phosphate buffer (pH 7.0) in microcentrifuge tubes in duplicate to give a final concentration of 66.67 μg/ml sCT. As a reference, control samples were incubated in tubes without HA (i.e., 0% of binding).
(§3) The tubes were incubated at room temperature on a shaker for 1 h, and centrifuged at 5000 g for 5 minutes to separate the HA from the supernatant. sCT concentration in the supernatant was determined using the BCA microprotein assay (Pierce, USA) as described above. HA centrifugate remaining after removal of supernatant was washed five times using 1 mL buffer each time and the last washing after centrifugation at 5000 g for 5 minutes was collected. Both the washings and the HA centrifugate were then analyzed for sCT as described above. The amount of sCT in the supernatant, washings and HA centrifugate was then inferred by measuring the absorbance at 562 nm, with a value of 100% for control samples without HA.
(§4) Bone mineral specificity of sCT analogue was then determined in the above manner using HA, calcium carbonate, calcium pyrophosphate, tricalcium phosphate and calcium oxalate.

[4] = Bone mineral specificity: calcium oxalate binding assay; details: 1 h, 100 mM phosphate buffer pH 7
Method: as §2, §3, §4

[5] = ELISA: anti-calcitonin antibody epitope and bone calcium binding on calcium phosphate coated plate (SMCC series); details: 1 μg/well, OD 650 nm
Method: (§5) sCT or sCT analogues equivalent to 1 μg/well were added in Calcium Phosphate coated Osteoclast Activity Assay Substrate plate (OCT USA, Inc.) in duplicate and the binding of BP to the calcium phosphate was allowed for 1 hours in the presence of 100 μl 100 mM Sodium Phosphate buffer pH 7. Plates were then washed three times with the same buffer containing 0.05% v/v Tween 80 (PBST). To avoid nonspecific binding, the wells were incubated with 3% w/v Bovine Serum Albumin for 1 h at room temperature. After washings, the wells were incubated with 100 μl of 1:5000 diluted rabbit anti-salmon calcitonin primary antibodies (US Biologicals, USA) for 1 h at room temperature. The wells were then washed three times with PBST and the bound antibodies were then incubated with secondary antibody, 1:5000 diluted goat anti-rabbit IgG conjugated with horseradish peroxidase (GAM-HRPO), for 1 h at room temperature. After final washings, 100 μl of 3,3′,5,5′-tetramethylbenzidine (TMB substrate) was added to each well and incubated for 15 min at room temperature. The optical density (OD) was measured at 650 nm using an ELISA Vmax kinetic microplate reader (Molecular Devices Corp., California, and USA).

[6] = Bone mineral specificity: calcium carbonate binding assay; details: 1 h, 100 mM phosphate buffer pH 7
Method: as §2, §3, §4

[7] = Effect on plasma phosphate level in normal rats (PEG series); type: in vivo, rat; details: 20 IU sCT/kg equivalent, subcutaneous
Method: as §1, with “was” for “was sub cu”

[8] = ELISA: anti-calcitonin antibody epitope binding on calcium phosphate coated plate (PEG series); details: 1 μg/well, OD 650 nm
Method: as §5, with “with […]” for “with 100 μl”, “primary monoclonal” for “primary”, “were detected using” for “were then incubated with”, “peroxidase (GAM-HRPO)” for “peroxidase (GAM-HRPO),”

[9] = first hour, vs acetate buffer controls

Salmon calcitonin [sCT, reference compound]
percentage of plasma phosphate reduction ([1]; 4 hour post dosing): 14.69±3.71% | percentage of plasma phosphate reduction [1, 9]: 11.91±6.24% | percentage of plasma phosphate reduction ([1]; second hour): 11.64±13.01% | serum albumin bound in circulation [2]: 40% | sCT recovered in supernatant after incubation with Calcium Pyrophosphate [3]: did not significantly reduce the sCT concentration in the supernatant | sCT recovered in supernatant after incubation with Calcium oxalate [4]: did not significantly reduce the sCT concentration in the supernatant | detection in ELISA after binding to calcium phosphate plate [5]: not significantly detected | sCT concentration in supernatant after incubation with Calcium carbonate [6]: did not significantly reduce the sCT concentration in the supernatant | percentage of plasma phosphate reduction ([7]; 4 hour post dosing): 15.7±3.7% | percentage of plasma phosphate reduction [7, 9]: 22.1±6.24% | percentage of plasma phosphate reduction ([7]; second hour): 22.7±13.01% | detection in ELISA after binding to calcium phosphate plate [8]: not significantly detected

Source: US8772235B2, “Compounds having peptides conjugated to bone targeting moieties and methods of making and using thereof” (The Governors of the University of Alberta, priority 2009, dated 2014)
